Laboratory results as given in patent publication US7985761B2, “Diphenylurea derivatives and their use as chloride channel blockers or BKCa channel modulators” (Neurosearch A/S, priority 2006, dated 2011).

Columns and labels:
Type in all cases: cell-based
human BK channels = target: T1, human BK channels (Homo sapiens, UniProt Q12791); test: Human BK channel screening, two-electrode voltage clamp in Xenopus oocytes; settings: 0.3 μM test compound, Xenopus oocytes expressing human BK channels
T1 construct: expressed in transfected cells; host or cells: Xenopus oocytes
Procedure: Human BK Channel Screening
The influence of a compound on the membrane currents was determined electrophysiologically on Xenopus Oocytes capable of expressing human BK channels, and the current through the channels was recorded using the classical two-electrode voltage clamp technique.
The first compound of Example 4, N-(3,5-Difluoro-phenyl)-N′-[3-(5-oxo-4,5-dihydro-[1,2,4]oxadiazol-3-yl)-4′-trifluoromethyl-biphenyl-4-yl]urea, was subjected to this determination at a concentrations of 0.3 μM of test compound, and it caused an increase of BK current relative to the basal current of more than 200%.

[1] = tested on: human erythrocyte chloride channels; test: In vitro human erythrocyte chloride conductance; settings: read-out: IC50 value - the concentration at which 50% of the chloride channels are blocked
Procedure: In Vitro Human Erythrocyte Chloride Conductance
The chloride conductance was measured according to the proceeding as described in the “Biology” paragraph of the specification of WO 00/24707. The parameter calculated from these studies is the IC50 value—the concentration at which 50% of the chloride channels are blocked.

[2] = target: T2, Volume Regulated Anion Channel (VRAC) (Homo sapiens, UniProt Q8IWT6); test: Volume Regulated Anion Channel (VRAC) effect, whole cell patch clamp in HEK293 cells; settings: VRAC activated by swelling in hypotonic (75% tonicity) extracellular solution, read-out: KD value (time dependent block of VRAC current)
T2 construct: endogenous in cells; host or cells: HEK293
T2 sequence (Q8IWT6 1-810): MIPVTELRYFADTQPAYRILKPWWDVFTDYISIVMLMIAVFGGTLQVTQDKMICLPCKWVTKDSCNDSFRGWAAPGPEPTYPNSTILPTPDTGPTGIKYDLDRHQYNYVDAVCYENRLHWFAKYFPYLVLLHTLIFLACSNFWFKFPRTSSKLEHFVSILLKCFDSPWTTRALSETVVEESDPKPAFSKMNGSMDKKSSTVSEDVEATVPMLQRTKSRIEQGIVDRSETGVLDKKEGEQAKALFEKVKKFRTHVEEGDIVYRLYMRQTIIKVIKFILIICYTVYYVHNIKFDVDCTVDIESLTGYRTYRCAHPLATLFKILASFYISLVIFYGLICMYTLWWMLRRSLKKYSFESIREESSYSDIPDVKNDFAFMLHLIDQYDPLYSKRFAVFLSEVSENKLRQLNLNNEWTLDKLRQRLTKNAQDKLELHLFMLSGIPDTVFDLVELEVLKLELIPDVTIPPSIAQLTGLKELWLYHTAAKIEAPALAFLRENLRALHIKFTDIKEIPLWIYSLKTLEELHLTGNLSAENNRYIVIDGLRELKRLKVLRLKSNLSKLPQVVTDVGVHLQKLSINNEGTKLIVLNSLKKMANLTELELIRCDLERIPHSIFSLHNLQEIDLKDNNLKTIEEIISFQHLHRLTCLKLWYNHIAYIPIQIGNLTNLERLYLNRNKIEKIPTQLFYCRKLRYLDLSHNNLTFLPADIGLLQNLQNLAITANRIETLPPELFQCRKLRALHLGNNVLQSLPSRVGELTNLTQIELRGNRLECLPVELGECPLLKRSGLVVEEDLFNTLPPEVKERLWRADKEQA
Procedure: Volume Regulated Anion Channel (VRAC) Effect
The activity on the Volume Regulated Anion Channel (VRAC) was tested by the whole cell patch clamp technique using Human Embryonic Kidney cells (HEK293) as described in Helix et al, J Membr Biol. 2003 196(2):83-94, In short, VRAC was activated by swelling of the cell in hypotonic (75% tonicity) extracellular salt solution and the anion current elicited by voltage ramps was measured vs. time. After stabilization of the current the compound to be tested was added to the extracellular solution and the time dependent block was followed for calculation of the KD value.

T1 sequence (Q12791 whole entry): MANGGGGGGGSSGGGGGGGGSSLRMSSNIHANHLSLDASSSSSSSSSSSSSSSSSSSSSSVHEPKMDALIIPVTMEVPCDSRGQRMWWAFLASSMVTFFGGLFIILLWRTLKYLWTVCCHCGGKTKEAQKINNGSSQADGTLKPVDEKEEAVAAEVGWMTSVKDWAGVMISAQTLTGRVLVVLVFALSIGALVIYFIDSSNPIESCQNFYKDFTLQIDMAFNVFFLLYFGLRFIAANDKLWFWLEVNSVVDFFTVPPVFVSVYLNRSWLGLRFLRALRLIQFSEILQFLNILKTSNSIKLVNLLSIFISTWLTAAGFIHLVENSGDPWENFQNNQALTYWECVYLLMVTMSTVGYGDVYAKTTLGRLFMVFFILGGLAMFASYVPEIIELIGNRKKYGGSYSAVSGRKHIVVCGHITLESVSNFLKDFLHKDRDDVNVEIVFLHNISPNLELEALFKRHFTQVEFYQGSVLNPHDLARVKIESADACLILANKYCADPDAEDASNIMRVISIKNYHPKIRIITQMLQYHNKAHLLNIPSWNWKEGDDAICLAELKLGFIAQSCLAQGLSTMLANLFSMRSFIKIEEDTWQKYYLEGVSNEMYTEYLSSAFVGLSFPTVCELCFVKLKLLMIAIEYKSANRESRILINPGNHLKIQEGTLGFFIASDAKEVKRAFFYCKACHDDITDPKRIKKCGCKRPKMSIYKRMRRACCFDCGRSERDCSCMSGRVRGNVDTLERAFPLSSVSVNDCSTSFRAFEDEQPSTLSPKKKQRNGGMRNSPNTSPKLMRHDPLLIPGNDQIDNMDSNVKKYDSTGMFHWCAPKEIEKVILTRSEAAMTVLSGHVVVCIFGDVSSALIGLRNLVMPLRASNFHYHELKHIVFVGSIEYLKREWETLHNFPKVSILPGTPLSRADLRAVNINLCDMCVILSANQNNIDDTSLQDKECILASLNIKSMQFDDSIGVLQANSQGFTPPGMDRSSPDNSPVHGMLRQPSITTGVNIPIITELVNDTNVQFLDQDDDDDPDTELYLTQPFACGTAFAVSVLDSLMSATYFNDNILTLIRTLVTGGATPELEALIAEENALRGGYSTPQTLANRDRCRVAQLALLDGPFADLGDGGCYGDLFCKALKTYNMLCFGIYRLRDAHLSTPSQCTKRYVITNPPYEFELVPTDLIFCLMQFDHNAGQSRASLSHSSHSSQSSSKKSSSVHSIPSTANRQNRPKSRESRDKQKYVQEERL

increase of BK current relative to the basal current (human BK channels): more than 200%
IC50 [1]: 0.28 µM
Kd [2]: 0.23 µM
SMILES: O=C(Nc1cc(F)cc(F)c1)Nc1ccc(-c2ccc(C(F)(F)F)cc2)cc1-c1noc(=O)[nH]1 [first compound of Example 4, N-(3,5-Difluoro-phenyl)-N′-[3-(5-oxo-4,5-dihydro-[1,2,4]oxadiazol-3-yl)-4′-trifluoromethyl-biphenyl-4-yl]urea]
